{"source": "patent US7649092B2", "about": "“Urea derivatives as calcium channel blockers” (Neuromed Pharmaceuticals Ltd., priority 2004, dated 2010)", "key": {"[1]": {"system": "SNL rats, tactile allodynia", "assay": "Spinal nerve ligation (SNL) model of neuropathic pain, tactile allodynia (von Frey filaments)", "format": "in vivo", "conditions": "rat SNL, 30 mg/kg orally in propylene glycol", "from_the_text": "(§1) Spinal nerve ligation (SNL) injury was induced using the procedure of Kim and Chung, (Kim, S. H., et al., Pain (1992) 50:355-363) in male Sprague-Dawley rats (Harlan; Indianapolis, Ind.) weighing 200 to 300 grams. Anesthesia was induced with 2% halothane in O2 at 2 L/min and maintained with 0.5% halothane in O2. After surgical preparation of the rats and exposure of the dorsal vertebral column from L4 to S2, the L5 and L6 spinal nerves were tightly ligated distal to the dorsal root ganglion using 4-0 silk suture. The incision was closed, and the animals were allowed to recover for 5 days. […] Sham control rats underwent the same operation and handling as the experimental animals, but without SNL.\nThe assessment of tactile allodynia consisted of measuring the withdrawal threshold of the paw ipsilateral to the site of nerve injury in response to probing with a series of calibrated von Frey filaments. Each filament was applied perpendicularly to the plantar surface of the ligated paw of rats kept in suspended wire-mesh cages. Measurements were taken before and after administration of drug or vehicle. Withdrawal threshold was determined by sequentially increasing and decreasing the stimulus strength (“up and down” method), analyzed using a Dixon non-parametric test (Chaplan, S. R., et al., J Pharmacol Exp Ther (1994) 269:1117-1123), and expressed as the mean withdrawal threshold.\n(§2) Compound 1 was administered orally in propylene glycol solution at a dose of 30 mg/kg. The percent activity was calculated for block of tactile allodynia, thermal hyperalgesia and analgesia."}, "[2]": {"molecular_target": "T1, rat brain N-type calcium channel subunits (α1B+α2δ+β1b cDNA subunits) (Rattus norvegicus, UniProt Q02294)", "T1 construct": "expressed in transfected cells", "T1 sequence (Q02294 whole entry)": "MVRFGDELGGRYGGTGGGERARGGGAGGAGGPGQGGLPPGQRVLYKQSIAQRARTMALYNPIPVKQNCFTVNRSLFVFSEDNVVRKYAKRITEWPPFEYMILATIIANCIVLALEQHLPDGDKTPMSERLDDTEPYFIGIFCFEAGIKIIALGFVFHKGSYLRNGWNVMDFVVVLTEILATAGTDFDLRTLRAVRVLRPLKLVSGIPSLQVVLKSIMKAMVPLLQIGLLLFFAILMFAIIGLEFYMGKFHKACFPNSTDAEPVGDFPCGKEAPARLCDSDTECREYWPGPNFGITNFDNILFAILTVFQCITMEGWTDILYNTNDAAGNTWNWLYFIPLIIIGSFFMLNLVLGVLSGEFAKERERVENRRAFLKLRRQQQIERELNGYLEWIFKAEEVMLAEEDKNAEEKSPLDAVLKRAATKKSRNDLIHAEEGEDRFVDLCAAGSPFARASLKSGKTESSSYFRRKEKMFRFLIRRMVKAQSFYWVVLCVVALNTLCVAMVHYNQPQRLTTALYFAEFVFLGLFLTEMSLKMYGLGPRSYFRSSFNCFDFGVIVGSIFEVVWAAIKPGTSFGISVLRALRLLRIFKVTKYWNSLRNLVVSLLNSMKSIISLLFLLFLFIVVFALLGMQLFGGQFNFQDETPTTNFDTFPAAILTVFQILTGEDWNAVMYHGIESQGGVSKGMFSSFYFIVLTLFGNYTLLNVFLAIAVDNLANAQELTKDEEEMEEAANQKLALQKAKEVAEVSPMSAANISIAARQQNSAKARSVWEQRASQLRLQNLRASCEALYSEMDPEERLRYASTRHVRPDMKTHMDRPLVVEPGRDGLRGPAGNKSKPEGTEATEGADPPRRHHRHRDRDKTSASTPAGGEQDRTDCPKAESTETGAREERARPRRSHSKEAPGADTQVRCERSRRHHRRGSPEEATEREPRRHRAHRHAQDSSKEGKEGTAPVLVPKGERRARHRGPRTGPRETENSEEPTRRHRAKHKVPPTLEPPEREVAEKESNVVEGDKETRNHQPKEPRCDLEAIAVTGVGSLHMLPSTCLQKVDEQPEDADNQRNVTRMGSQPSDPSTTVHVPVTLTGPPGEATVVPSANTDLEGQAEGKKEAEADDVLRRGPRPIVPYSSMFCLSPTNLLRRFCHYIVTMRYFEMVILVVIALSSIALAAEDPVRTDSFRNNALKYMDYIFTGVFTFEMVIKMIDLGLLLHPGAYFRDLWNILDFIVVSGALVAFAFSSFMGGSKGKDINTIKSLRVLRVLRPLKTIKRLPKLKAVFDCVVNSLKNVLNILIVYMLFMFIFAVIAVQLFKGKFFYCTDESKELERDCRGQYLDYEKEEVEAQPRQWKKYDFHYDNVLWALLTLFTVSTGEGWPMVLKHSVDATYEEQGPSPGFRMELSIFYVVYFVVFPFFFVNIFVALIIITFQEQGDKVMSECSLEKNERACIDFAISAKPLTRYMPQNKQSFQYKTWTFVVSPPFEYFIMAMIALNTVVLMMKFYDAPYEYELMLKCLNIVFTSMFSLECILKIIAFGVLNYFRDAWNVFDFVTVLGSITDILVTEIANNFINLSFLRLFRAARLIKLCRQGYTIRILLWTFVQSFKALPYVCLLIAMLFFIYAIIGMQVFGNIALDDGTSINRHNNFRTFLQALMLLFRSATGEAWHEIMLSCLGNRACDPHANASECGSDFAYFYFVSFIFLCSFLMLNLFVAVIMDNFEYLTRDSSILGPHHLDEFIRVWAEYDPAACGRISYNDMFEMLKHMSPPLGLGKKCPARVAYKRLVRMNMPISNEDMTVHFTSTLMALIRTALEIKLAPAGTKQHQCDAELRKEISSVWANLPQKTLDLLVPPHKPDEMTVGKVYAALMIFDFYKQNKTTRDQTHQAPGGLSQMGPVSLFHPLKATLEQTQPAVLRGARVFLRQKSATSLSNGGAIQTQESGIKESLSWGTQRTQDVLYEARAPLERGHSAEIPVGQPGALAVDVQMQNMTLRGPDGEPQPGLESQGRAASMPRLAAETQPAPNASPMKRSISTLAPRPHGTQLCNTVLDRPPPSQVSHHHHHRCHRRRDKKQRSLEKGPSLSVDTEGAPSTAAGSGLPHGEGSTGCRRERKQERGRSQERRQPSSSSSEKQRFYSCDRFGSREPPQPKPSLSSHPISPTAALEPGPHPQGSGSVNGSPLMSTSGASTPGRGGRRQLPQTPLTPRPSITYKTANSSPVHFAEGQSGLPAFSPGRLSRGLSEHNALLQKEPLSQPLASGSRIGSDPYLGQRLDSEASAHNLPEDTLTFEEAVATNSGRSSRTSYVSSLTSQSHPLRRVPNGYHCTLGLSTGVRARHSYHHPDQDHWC", "T1 sequence (P54290 25-1091 partner)": "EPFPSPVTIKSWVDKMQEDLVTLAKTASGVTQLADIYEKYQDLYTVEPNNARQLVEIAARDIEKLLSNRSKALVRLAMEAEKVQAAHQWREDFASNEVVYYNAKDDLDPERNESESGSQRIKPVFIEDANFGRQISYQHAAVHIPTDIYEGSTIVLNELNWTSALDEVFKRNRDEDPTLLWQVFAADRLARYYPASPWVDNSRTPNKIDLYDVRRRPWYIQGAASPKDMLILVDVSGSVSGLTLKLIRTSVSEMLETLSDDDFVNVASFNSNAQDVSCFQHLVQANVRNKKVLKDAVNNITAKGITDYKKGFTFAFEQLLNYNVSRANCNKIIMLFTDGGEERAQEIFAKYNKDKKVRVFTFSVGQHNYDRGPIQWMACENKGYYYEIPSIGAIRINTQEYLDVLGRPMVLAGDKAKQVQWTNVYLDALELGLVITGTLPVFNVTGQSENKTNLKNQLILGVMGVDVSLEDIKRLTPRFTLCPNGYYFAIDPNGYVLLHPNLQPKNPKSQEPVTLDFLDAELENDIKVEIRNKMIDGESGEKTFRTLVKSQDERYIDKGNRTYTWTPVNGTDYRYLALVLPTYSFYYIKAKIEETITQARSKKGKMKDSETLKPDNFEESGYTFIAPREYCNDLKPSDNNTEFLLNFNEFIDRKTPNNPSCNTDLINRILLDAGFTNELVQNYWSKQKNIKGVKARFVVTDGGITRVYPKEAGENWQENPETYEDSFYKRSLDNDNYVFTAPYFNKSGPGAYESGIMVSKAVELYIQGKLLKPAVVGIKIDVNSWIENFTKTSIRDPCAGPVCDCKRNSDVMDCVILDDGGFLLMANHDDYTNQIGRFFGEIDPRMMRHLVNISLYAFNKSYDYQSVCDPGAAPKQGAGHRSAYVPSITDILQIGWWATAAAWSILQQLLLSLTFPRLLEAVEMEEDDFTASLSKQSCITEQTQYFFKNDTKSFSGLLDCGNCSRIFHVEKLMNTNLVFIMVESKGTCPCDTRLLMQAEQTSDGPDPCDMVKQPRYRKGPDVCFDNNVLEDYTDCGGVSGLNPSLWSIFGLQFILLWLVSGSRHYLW", "T1 sequence (P54283 whole entry partner)": "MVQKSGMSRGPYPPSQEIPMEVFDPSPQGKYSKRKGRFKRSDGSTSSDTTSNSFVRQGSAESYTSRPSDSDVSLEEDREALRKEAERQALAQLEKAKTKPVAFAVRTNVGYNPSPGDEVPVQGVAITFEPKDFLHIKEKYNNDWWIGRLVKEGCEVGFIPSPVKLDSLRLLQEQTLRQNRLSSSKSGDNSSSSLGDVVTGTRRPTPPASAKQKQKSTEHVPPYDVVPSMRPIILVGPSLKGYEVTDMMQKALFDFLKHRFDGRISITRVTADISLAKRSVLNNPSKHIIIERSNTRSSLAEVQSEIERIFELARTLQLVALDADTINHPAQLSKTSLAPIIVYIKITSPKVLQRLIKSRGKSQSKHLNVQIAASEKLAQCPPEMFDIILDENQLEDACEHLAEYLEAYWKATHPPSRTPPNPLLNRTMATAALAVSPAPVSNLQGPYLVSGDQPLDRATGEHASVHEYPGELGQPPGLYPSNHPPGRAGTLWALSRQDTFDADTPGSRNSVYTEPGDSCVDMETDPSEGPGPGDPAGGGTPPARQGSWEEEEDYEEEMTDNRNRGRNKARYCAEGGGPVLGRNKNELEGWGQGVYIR", "assay": "N-type calcium channel block, whole cell patch clamp in HEK 293 cells", "format": "cell-based", "conditions": "holding potential −80 mV to +10 mV", "method": "N-type calcium channel blocking activity was assayed in human embryonic kidney cells, HEK 293, stably transfected with the rat brain N-type calcium channel subunits (α1B+α2δ+β1b cDNA subunits). Alternatively, N-type calcium channels (α1B+α2δ+β1b cDNA subunits), L-type channels (α1C+α2δ+β1b cDNA subunits) and P/Q-type channels (α1A+α2δ+β1b cDNA subunits) were transiently expressed in HEK 293 cells. Briefly, cells were cultured in Dulbecco's modified eagle medium (DMEM) supplemented with 10% fetal bovine serum, 200 U/ml penicillin and 0.2 mg/ml streptomycin at 37° C. with 5% CO2. At 85% confluency cells were split with 0.25% trypsin/1 mM EDTA and plated at 10% confluency on glass coverslips. At 12 hours the medium was replaced and the cells transiently transfected using a standard calcium phosphate protocol and the appropriate calcium channel cDNA's. Fresh DMEM was supplied and the cells transferred to 28° C./5% CO2. Cells were incubated for 1 to 2 days prior to whole cell recording.\nWhole cell patch clamp experiments were performed using an Axopatch 200B amplifier (Axon Instruments, Burlingame, Calif.) linked to a personal computer equipped with pCLAMP software. The external and internal recording solutions contained, respectively, 5 mM BaCl2, 10 mM MgCl2, 10 mM HEPES, 40 mM TEAC1, 10 mM glucose, 87.5 mM CsCl (pH 7.2) and 108 mM CsMS, 4 mM MgCl2, 9 mM EGTA, 9 mM HEPES (pH 7.2). Currents were typically elicited from a holding potential of −80 mV to +10 mV using Clampex software (Axon Instruments). Typically, currents were first elicited with low frequency stimulation (0.067 Hz) and allowed to stabilize prior to application of the compounds. The compounds were then applied during the low frequency pulse trains for two to three minutes to assess tonic block, and subsequently the pulse frequency was increased to 0.2 Hz to assess frequency dependent block. Data were analyzed using Clampfit (Axon Instruments) and SigmaPlot 4.0 (Jandel Scientific)."}, "[3]": {"molecular_target": "T2, human DiG T-type channels (Homo sapiens, UniProt O43497)", "T2 construct": "expressed in transfected cells", "assay": "T-type calcium channel block, whole-cell patch clamp in HEK cell lines", "format": "cell-based", "method": "Standard patch-clamp techniques were employed to identify blockers of T-type currents. Briefly, previously described HEK cell lines stably expressing human DiG T-type channels were used for all the recordings (passage #: 4-20, 37° C., 5% CO2). To obtain T-type currents, plastic dishes containing semi-confluent cells were positioned on the stage of a ZEISS AXIOVERT S100 microscope after replacing the culture medium with external solution (see below). Whole-cell patches were obtained using pipettes (borosilicate glass with filament, O.D.: 1.5 mm, I.D.: 0.86 mm, 10 cm length), fabricated on a SUTTER P-97 puller with resistance values of ˜5 MΩ (see below for internal solution).\nIn the non-inactivating protocol, the holding potential is set at −110 mV and with a pre-pulse at −100 mV for 1 second prior to the test pulse at −40 mV for 50 ms. […]\nTest compounds were dissolved in external solution, 0.1-0.01% DMSO. After ˜10 min rest, they were applied by gravity close to the cell using a WPI microfil tubing. The “non-inactivated” pre-pulse was used to examine the resting block of a compound. The “inactivated” protocol was employed to study voltage-dependent block. However, the initial data shown below were mainly obtained using the non-inactivated protocol only. IC50 values are shown for various compounds of the invention in Table 5."}, "[4]": {"system": "SNL rats, thermal hyperalgesia / anti nociception", "assay": "Spinal nerve ligation (SNL) model of neuropathic pain, paw-withdrawal latency to thermal stimulus (Hargreaves)", "format": "in vivo", "conditions": "rat SNL, 30 mg/kg orally in propylene glycol", "from_the_text": "as §1\nThe method of Hargreaves and colleagues (Hargreaves, K., et al., Pain (1988) 32:77-88) was employed to assess paw-withdrawal latency to a thermal nociceptive stimulus. Rats were allowed to acclimate within a Plexiglas enclosure on a clear glass plate maintained at 30° C. A radiant heat source (i.e., high intensity projector lamp) was activated with a timer and focused onto the plantar surface of the affected paw of nerve-injured or carrageenan-injected rats. Paw-withdrawal latency was determined by a photocell that halted both lamp and timer when the paw was withdrawn. The latency to withdrawal of the paw from the radiant heat source was determined prior to carrageenan or […], 3 hours after carrageenan or 7 days after L5/L6 SNL but before drug and after drug administration. A maximal cut-off of 40 seconds was employed to prevent tissue damage. Paw withdrawal latencies were thus determined to the nearest 0.1 second. Reversal of thermal hyperalgesia was indicated by a return of the paw withdrawal latencies to the pre-treatment baseline latencies (i.e., 21 seconds). Anti nociception was indicated by a significant (p<0.05) increase in paw withdrawal latency above this baseline. Data were converted to % anti hyperalgesia or % anti nociception by the formula: (100×(test latency−baseline latency)/(cut-off−baseline latency) where cut-off was 21 seconds for determining anti hyperalgesia and 40 seconds for determining anti nociception.\nas §2"}, "rat formalin model": {"system": "rat formalin model", "assay": "Formalin-induced pain model (paw flinches)", "format": "in vivo", "conditions": "30 mg/kg IP, 10 min before formalin, ±SEM, saline control=100%", "method": "The effects of intrathecally delivered compounds of the invention on the rat formalin model were measured. The compounds were reconstituted to stock solutions of approximately 10 mg/ml in propylene glycol. Eight Holtzman male rats of 275-375 g size were randomly selected per test article.\nThe following study groups were used, with test article, vehicle control (propylene glycol) and saline delivered intraperitoneally (IP):\nPrior to initiation of drug delivery baseline behavioral and testing data were taken.\nOn the morning of testing, a small metal band (0.5 g) was loosely placed around the right hind paw. The rat was placed in a cylindrical Plexiglas chamber for adaptation a minimum of 30 minutes. Test Article or Vehicle Control Article was administered 10 minutes prior to formalin injection (50 μl of 5% formalin) into the dorsal surface of the right hind paw of the rat. The animal was then placed into the chamber of the automated formalin apparatus where movement of the formalin injected paw was monitored and the number of paw flinches tallied by minute over the next 60 minutes (Malmberg, A. B., et al., Anesthesiology (1993) 79:270-281).\nResults are presented as Maximum Possible Effect ±SEM, where saline control=100%."}, "[5]": {"system": "T-type over L-type channels", "conditions": "literature (Heady et al. 2001); cited from earlier work"}}, "note": "Like-named read-outs stand apart in the source and are kept apart here."}
{"smiles": "O=C(NC(c1ccccc1)c1ccccc1)N1CCN(C(c2ccccc2)c2ccccc2)CC1", "note": "[Compound 1, 4-Benzhydryl-piperazine-1-carboxylic acid benzhydryl-amide]", "values": [{"measurement": "Tactile Allodynia (% Activity)", "setting": "[1]; 30 min", "value": "35.77 ± 10.38", "unit": "% Activity"}, {"measurement": "Tactile Allodynia (% Activity)", "setting": "[1]; 60 min", "value": "80.89 ± 13.30", "unit": "% Activity"}, {"measurement": "Tactile Allodynia (% Activity)", "setting": "[1]; 90 min", "value": "35.49 ± 9.01", "unit": "% Activity"}, {"measurement": "Tactile Allodynia (% Activity)", "setting": "[1]; 120 min", "value": "19.61 ± 6.78", "unit": "% Activity"}, {"measurement": "Tactile Allodynia (% Activity)", "setting": "[1]; 150 min", "value": "1.98 ± 1.42", "unit": "% Activity"}, {"measurement": "IC50", "setting": "[2]; low frequency stimulation 0.067 Hz (tonic block), read-out: IC50 @ 0.067 Hz", "value": 0.2, "unit": "µM"}, {"measurement": "IC50", "setting": "[2]; pulse frequency 0.2 Hz (frequency dependent block), read-out: IC50 @ 0.2 Hz", "value": 0.15, "unit": "µM"}, {"measurement": "IC50", "setting": "[3]; inactivation protocol, @ −80 mV, read-out: IC50 @ −80 mV", "value": 0.231, "unit": "µM"}, {"measurement": "IC50", "setting": "[3]; non-inactivating protocol, pre-pulse −100 mV, test pulse −40 mV, read-out: IC50 @ −100 mV", "value": 0.583, "unit": "µM"}, {"measurement": "Analgesia (% Activity)", "setting": "[4]; 30 min", "value": "82.47 ± 10.11", "unit": "% Activity"}, {"measurement": "Thermal Hyperalgesia (% Activity)", "setting": "[4]; 30 min", "value": "46.98 ± 15.09", "unit": "% Activity"}, {"measurement": "Analgesia (% Activity)", "setting": "[4]; 60 min", "value": "88.95 ± 8.30", "unit": "% Activity"}, {"measurement": "Thermal Hyperalgesia (% Activity)", "setting": "[4]; 60 min", "value": "97.86 ± 2.14", "unit": "% Activity"}, {"measurement": "Analgesia (% Activity)", "setting": "[4]; 90 min", "value": "9.02 ± 5.66", "unit": "% Activity"}, {"measurement": "Thermal Hyperalgesia (% Activity)", "setting": "[4]; 90 min", "value": "49.07 ± 10.17", "unit": "% Activity"}, {"measurement": "Analgesia (% Activity)", "setting": "[4]; 120 min", "value": "0.00 ± 0.00", "unit": "% Activity"}, {"measurement": "Thermal Hyperalgesia (% Activity)", "setting": "[4]; 120 min", "value": "33.36 ± 10.62", "unit": "% Activity"}, {"measurement": "Phase I (% MPE)", "setting": "rat formalin model", "value": "58 ± 15", "unit": "% MPE"}, {"measurement": "Phase II Total (% MPE)", "setting": "rat formalin model", "value": "75 ± 12", "unit": "% MPE"}, {"measurement": "Phase IIA (% MPE)", "setting": "rat formalin model", "value": "65 ± 12", "unit": "% MPE"}, {"measurement": "Phase IIB (% MPE)", "setting": "rat formalin model", "value": "99 ± 15", "unit": "% MPE"}]}
{"smiles": "COCC(=O)O[C@]1(CCN(C)CCCc2nc3ccccc3[nH]2)CCc2cc(F)ccc2[C@@H]1C(C)C", "note": "[Mibefradil]", "values": [{"measurement": "selective for T-type over L-type channels", "setting": "[5]", "value": "10-30 fold"}]}
